Where a name gives a salt, the structure may show the parent alone.
Key:
MCH1 receptor [1] = target: T1, MCH1 receptor (Rattus norvegicus, UniProt P97639); assay: Displacement of [125I]-Tyr-S36057 binding to MCH1 receptors, rat brain membrane preparations; details: in rats, brain membranes, read-out: IC50 (concentration that inhibits 50% of the specific binding)
T1 construct: from tissue; host or cells: rat brain membranes
Description: (§1) The measurement of the affinity of the compounds of the invention for the MCH receptors was performed by studying the displacement of the binding of a radiolabelled derivative of MCH to the MCH1 receptors. This study was performed on rat and/or mouse brain membrane preparations according to the protocol described below.
(§2) In anticipation of the binding studies, the brains are diluted in HEPES buffer 25 mM (pH: 7.4) containing MgCl2 5 mM, CaCl2 1 mM, homogenized using a Polytron blender for 3 times 20 seconds (speed 25), and are then ultracentrifuged at 22000 rpm and at +4° C. for 30 minutes. The centrifugation pellet is taken up in the same buffer and the membranes are divided into aliquots and stored frozen at −80° C. until the time of use. The membranes are warmed to room temperature and then incubated in the presence of the test compounds, and of […] of an MCH-based radiolabelled molecule, [^125I]-Tyr-S36057 (8-amino-3,6-dioxyoctanoyl MCH 6-17 sold by Perkin-Elmer), in HEPES buffer 25 mM (pH: 7.4) containing MgCl2 5 mM, CaCl2 1 mM, bacitracin 140 mg/L, phenanthroline 1 mM and 0.2% bovine serum albumin. […] The radioactivity retained on the filters is measured using a Gamma scintillation counter. The non-specific binding is determined in the presence of 1 μM of non-radiolabelled S36057. […]

MCH1 receptor [2] = target: T2, MCH1 receptor (Mus musculus, UniProt Q8JZL2); assay: Displacement of [125I]-Tyr-S36057 binding to MCH1 receptors, mouse brain membrane preparations; details: in mice, brain membranes, read-out: IC50 (concentration that inhibits 50% of the specific binding)
T2 construct: from tissue; host or cells: mouse brain membranes
Description: as §1, §2

T2 sequence (Q8JZL2 whole entry): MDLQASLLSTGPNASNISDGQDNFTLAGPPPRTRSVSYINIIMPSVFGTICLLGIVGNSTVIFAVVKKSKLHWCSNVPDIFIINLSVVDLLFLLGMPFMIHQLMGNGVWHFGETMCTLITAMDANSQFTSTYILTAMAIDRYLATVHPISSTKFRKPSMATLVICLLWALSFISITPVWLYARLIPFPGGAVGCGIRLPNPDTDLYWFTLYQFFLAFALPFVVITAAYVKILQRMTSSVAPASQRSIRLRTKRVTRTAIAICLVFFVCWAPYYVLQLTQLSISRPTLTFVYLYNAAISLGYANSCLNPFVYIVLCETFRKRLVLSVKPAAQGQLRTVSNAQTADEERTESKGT
T1 sequence (P97639 whole entry): as the sequence (Q8JZL2 whole entry) above, with A5T, F24L, A27P, P29S, R34G, A138T counted along it

IC50 (MCH1 receptor [1]) [nM] | IC50 (MCH1 receptor [2]) [nM] | SMILES
0.5 | 0.2 | COc1ccc2c(C3CCN(Cc4ccccc4)CC3)nnc(NC3CCN(Cc4ccc5c(c4)OCO5)CC3)c2c1 [Example 1, N-[1-(1,3-Benzodioxol-5-ylmethyl)piperidin-4-yl]-4-(1-benzylpiperidin-4-yl)-7-methoxyphthalazin-1-amine Trihydrochloride]
52 | 38 | COc1ccc(-c2nnc(NC3CCN(Cc4ccc(OCCCN(C)C)cc4)CC3)c3cc(OC)ccc23)cc1 [Example 3, N-(1-[{4-[3-(Dimethylamino)propoxy]benzyl}piperidin-4-yl)-7-methoxy-4-(4-methoxy-phenyl)phthalazin-1-aminetrihydrochloride]

Source: patent US20090124624A1, “SUBSTITUTED 1-AMINOPHTHALAZINE DERIVATIVES, PREPARATION THEREOF AND THERAPEUTIC APPLICATION THEREOF” (SANOFI-AVENTIS, priority 2005, published 2009)
